Results published in ChEMBL document CHEMBL1128629, “Mechanism-based inactivation of porphobilinogen synthase: Substitution of ketone functionality in the substrate with a thioester” (Bioorg Med Chem Lett, 1995).
Each block holds one compound with its values, some of them ahead of it.

Columns and labels:
Conditions in all cases: Escherichia coli
[1] = biological target: T1, Delta-aminolevulinic acid dehydratase (Homo sapiens) (UniProt P13716); assay: Retention of porphobilinogen synthase activity in presence of 0.3 uM of the compound
T1 sequence (whole entry): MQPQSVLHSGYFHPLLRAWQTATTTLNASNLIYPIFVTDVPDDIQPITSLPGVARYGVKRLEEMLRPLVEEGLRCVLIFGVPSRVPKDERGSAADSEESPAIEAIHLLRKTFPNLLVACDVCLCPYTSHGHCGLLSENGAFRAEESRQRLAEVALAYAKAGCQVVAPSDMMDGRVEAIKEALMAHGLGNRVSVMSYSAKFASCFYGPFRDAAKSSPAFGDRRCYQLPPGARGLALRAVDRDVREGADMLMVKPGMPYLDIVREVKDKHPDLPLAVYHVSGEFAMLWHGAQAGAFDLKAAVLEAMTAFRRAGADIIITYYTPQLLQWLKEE

[2] = biological target: T1, Delta-aminolevulinic acid dehydratase (Homo sapiens); assay: Inhibitory activity against porphobilinogen synthase in presence of 150 uM over 30 min
[3] = biological target: T1, Delta-aminolevulinic acid dehydratase (Homo sapiens); assay: Inhibitory activity against porphobilinogen synthase in presence of 5 mM for 30 min; No loss in activity

Retention [1]: 80%
Compound: NCC(=O)CCC(=O)O

Loss of activity [2]: 80%
Compound: NCC(=O)SCC(=O)O

Loss of activity [3]: No loss in activity
Compound: NCC(=O)OCC(=O)O
